These results are taken from paper PMC2584039 (Molecular Pain, 2008).

For one experiment, the system named is TRPA1. The arrangement: method as in Petrus et al. (2007). Conditions: mouse; ref Petrus et al. (2007); cited from earlier work.
The target in another experiment is T1, human TRPA1 (Homo sapiens, UniProt O75762).
T1 construct: Full length human TRPA1 cDNA was purchased from Origene Technologies; host or cells: HEK-293 (Invitrogen Flp-In system, hygromycin B selection)
Nature of the experiment: cell-based.

The subject of experiment [1] is spinal nerve ligation induced mechanical hypersensitivity. Conditions: rat, in vivo.

pEC50, pIC50: −log10 of the molar value.

T1 sequence (O75762 whole entry): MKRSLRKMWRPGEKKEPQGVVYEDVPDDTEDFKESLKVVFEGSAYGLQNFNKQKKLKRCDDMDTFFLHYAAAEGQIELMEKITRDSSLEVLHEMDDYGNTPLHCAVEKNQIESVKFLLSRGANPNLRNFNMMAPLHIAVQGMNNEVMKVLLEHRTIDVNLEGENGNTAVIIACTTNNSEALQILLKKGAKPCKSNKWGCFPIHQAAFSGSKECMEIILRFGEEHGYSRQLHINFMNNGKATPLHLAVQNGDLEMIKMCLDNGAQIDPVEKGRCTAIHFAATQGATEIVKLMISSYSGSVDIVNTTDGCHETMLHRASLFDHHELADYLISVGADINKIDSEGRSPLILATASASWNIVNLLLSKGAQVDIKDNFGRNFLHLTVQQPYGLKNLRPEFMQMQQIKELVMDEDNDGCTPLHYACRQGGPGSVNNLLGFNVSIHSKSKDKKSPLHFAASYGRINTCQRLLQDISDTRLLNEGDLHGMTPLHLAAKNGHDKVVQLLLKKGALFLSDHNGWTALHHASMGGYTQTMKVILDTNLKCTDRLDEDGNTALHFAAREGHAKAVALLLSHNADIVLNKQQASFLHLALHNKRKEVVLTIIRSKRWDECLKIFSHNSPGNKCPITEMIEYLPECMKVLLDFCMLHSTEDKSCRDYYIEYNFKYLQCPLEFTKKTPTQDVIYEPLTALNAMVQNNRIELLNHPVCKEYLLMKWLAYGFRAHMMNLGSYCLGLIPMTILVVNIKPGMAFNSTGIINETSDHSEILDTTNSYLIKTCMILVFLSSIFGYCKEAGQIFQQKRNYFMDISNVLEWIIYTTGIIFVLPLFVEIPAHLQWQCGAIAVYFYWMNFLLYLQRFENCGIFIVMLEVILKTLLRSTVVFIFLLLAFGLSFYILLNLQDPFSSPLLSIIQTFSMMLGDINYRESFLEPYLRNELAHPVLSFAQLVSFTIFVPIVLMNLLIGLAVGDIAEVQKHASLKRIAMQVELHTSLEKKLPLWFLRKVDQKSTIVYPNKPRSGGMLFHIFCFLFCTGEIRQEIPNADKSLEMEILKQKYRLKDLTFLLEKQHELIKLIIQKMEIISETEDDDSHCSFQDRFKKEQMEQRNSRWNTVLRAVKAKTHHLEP

In the case of `CC(=C\c1ccc(Cl)cc1)/C(C)=N/O` [AP18], the negative-log IC50 (pIC50) (in general, −log10 of the IC50, conventionally taken in molar units) with TRPA1 is 5.35.

Take `O=C/C=C/c1ccccc1` [cinnamaldehyde]: at human TRPA1, the negative logarithm of the EC50 (pEC50) (usually the EC50 on a negative log10 scale, so that one unit is a factor of ten) was 4.80.

Turning to `CC(C)C[C@H](CN)CC(=O)O` [pregabalin], in experiment [1], the “effect on SNL mechanical hypersensitivity vs vehicle” value is recorded as “significant attenuation” and the “percent reversal of SNL-induced mechanical hypersensitivity” value was 56%.
